Assays:
wheat [1] = assay: Test Example 4: effect on crop by soil treatment (Table 19, symbol e); format: in vivo; settings: 320 g/ha
Text: (§1) [Test Example 4] Herbicidal Effect Test by Soil Treatment
(§2) Sterilized diluvial soil was placed in a plastic box having a length of 21 cm, a width of 13 cm, and a depth of 7 cm. The seeds of each of southern crabgrass, green foxtail, barnyard grass, wild oat, blackgrass, Italian ryegrass, windgrass, velvetleaf, redroot pigweed, lambsquarters, chickweed, false cleavers, persian speedwell, corn, soybean, rice, wheat, beet, and rapeseed were sowed in a spot-like manner and covered with the soil having a thickness of about 1.5 cm. Subsequently, the emulsion agent of the compound of the present invention prepared according to Formulation Example 2 was diluted with water so as to achieve a predetermined herbicide amount, and the diluted emulsion agent was uniformly applied to the surface of the soil with a small-sized spray. The plastic box was placed in a greenhouse at 25° C. to 30° C. for growth of the plants. Three weeks after the herbicide application, the effect of the herbicide on each plant was evaluated according to the criteria of Test Example 1.

beet [2] = assay: Test Example 4: effect on crop by soil treatment (Table 19, symbol f); format: in vivo; settings: 320 g/ha
Text: as §1, §2

rapeseed [3] = assay: Test Example 4: effect on crop by soil treatment (Table 19, symbol g); format: in vivo; settings: 320 g/ha
How it was run: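 Three weeks of greenhouse growth at 25° C. to 30° C. followed a uniform surface spray of water-diluted emulsion at a predetermined herbicide amount. Seeds had been sown beforehand under about 1.5 cm of sterilized diluvial soil. Grading followed criteria set out in an earlier test.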

southern crabgrass = assay: Test Example 5: herbicidal effect by foliage application, plastic box (Table 20, symbol F); format: in vivo, southern crabgrass (Digitaria ciliaris); settings: foliage application, 320 g/ha, 3 weeks after application
How it was run: (§3)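 Plants sown in sterilized diluvial soil and grown 14 days in a greenhouse at 25° C to 30° C, then sprayed on the foliage with the compound's emulsion diluted in water to a predetermined herbicide amount. Injury to weeds and crops scored three weeks after application on a visual rating scale.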

green foxtail = assay: Test Example 5: herbicidal effect by foliage application, plastic box (Table 20, symbol G); format: in vivo, green foxtail (Setaria viridis); settings: foliage application, 320 g/ha, 3 weeks after application
How it was run: as §3

barnyard grass = assay: Test Example 5: herbicidal effect by foliage application, plastic box (Table 20, symbol H); format: in vivo, barnyard grass (Echinochloa crus-galli); settings: foliage application, 320 g/ha, 3 weeks after application
How it was run: as §3

wild oat = assay: Test Example 5: herbicidal effect by foliage application, plastic box (Table 20, symbol I); format: in vivo, wild oat (Avena fatua); settings: foliage application, 320 g/ha, 3 weeks after application
How it was run: as §3

blackgrass = assay: Test Example 5: herbicidal effect by foliage application, plastic box (Table 20, symbol J); format: in vivo, blackgrass (Alopecurus myosuroides); settings: foliage application, 320 g/ha, 3 weeks after application
How it was run: as §3

Italian ryegrass = assay: Test Example 5: herbicidal effect by foliage application, plastic box (Table 20, symbol K); format: in vivo, Italian ryegrass (Lolium multiflorum); settings: foliage application, 320 g/ha, 3 weeks after application
How it was run: as §3

windgrass = assay: Test Example 5: herbicidal effect by foliage application, plastic box (Table 20, symbol L); format: in vivo, windgrass (Apera spica-venti); settings: foliage application, 320 g/ha, 3 weeks after application
How it was run: as §3

velvetleaf = assay: Test Example 5: herbicidal effect by foliage application, plastic box (Table 20, symbol M); format: in vivo, velvetleaf (Abutilon theophrasti); settings: foliage application, 320 g/ha, 3 weeks after application
How it was run: as §3

lambsquarters = assay: Test Example 5: herbicidal effect by foliage application, plastic box (Table 20, symbol O); format: in vivo, lambsquarters (Chenopodium album); settings: foliage application, 320 g/ha, 3 weeks after application
How it was run: as §3

persian speedwell = assay: Test Example 5: herbicidal effect by foliage application, plastic box (Table 20, symbol R); format: in vivo, Persian speedwell (Veronica persica); settings: foliage application, 320 g/ha, 3 weeks after application
How it was run: as §3

corn = assay: Test Example 5: effect on crop by foliage application, plastic box (Table 20, symbol c); format: in vivo; settings: 320 g/ha, 3 weeks after application
Text: (§4) [Test Example 5] Herbicidal Effect Test by Foliage Application
as §2, with “Thereafter, the plants were grown in a greenhouse at 25° C. to 30° C. After 14-day growth of the plants,” for “Subsequently,”, “a foliage part” for “the surface of the soil”, “spray.” for “spray. The plastic box was placed in a greenhouse at 25° C. to 30° C. for growth of the plants.”

soybean = assay: Test Example 5: effect on crop by foliage application, plastic box (Table 20, symbol d); format: in vivo; settings: 320 g/ha, 3 weeks after application
Text: as §4
as §2, with “Thereafter, the plants were grown in a greenhouse at 25° C. to 30° C. After 14-day growth of the plants,” for “Subsequently,”, “a foliage part” for “the surface of the soil”, “spray.” for “spray. The plastic box was placed in a greenhouse at 25° C. to 30° C. for growth of the plants.”

wheat [4] = assay: Test Example 5: effect on crop by foliage application, plastic box (Table 20, symbol e); format: in vivo; settings: 320 g/ha, 3 weeks after application
Text: as §4
as §2, with “Thereafter, the plants were grown in a greenhouse at 25° C. to 30° C. After 14-day growth of the plants,” for “Subsequently,”, “a foliage part” for “the surface of the soil”, “spray.” for “spray. The plastic box was placed in a greenhouse at 25° C. to 30° C. for growth of the plants.”

beet [5] = assay: Test Example 5: effect on crop by foliage application, plastic box (Table 20, symbol f); format: in vivo; settings: 320 g/ha, 3 weeks after application
Text: as §4
as §2, with “Thereafter, the plants were grown in a greenhouse at 25° C. to 30° C. After 14-day growth of the plants,” for “Subsequently,”, “a foliage part” for “the surface of the soil”, “spray.” for “spray. The plastic box was placed in a greenhouse at 25° C. to 30° C. for growth of the plants.”

rapeseed [6] = assay: Test Example 5: effect on crop by foliage application, plastic box (Table 20, symbol g); format: in vivo; settings: 320 g/ha, 3 weeks after application
Text: as §4
as §2, with “Thereafter, the plants were grown in a greenhouse at 25° C. to 30° C. After 14-day growth of the plants,” for “Subsequently,”, “a foliage part” for “the surface of the soil”, “spray.” for “spray. The plastic box was placed in a greenhouse at 25° C. to 30° C. for growth of the plants.”

melting point: 164 to 165 °C
SMILES: Cc1nn(C)c(=O)c(-c2c(-c3ccc(OC(F)F)cc3)sc3ccc(F)cc23)c1O [Compound No. 2-042, 4-(2-(4-(difluoromethoxy)phenyl)-5-fluorobenzo[b]thiophen-3-yl)-5-hydroxy-2,6-dimethylpyridazin-3(2H)-one]
effect rating on crop, e: wheat (wheat [1]): 0 (Herbicidal rate of 5% or less (almost no effect))
effect rating on crop, f: beet (beet [2]): 1 (Herbicidal rate of 5% or more and less than 20%)
effect rating on crop, g: rapeseed (rapeseed [3]): 5 (Herbicidal rate of 90% or more (almost completely withered))
effect on southern crabgrass (F) (southern crabgrass): 4 (Herbicidal rate of 70% or more and less than 90%)
effect on green foxtail (G) (green foxtail): 5 (Herbicidal rate of 90% or more (almost completely withered))
effect on barnyard grass (H) (barnyard grass): 5 (Herbicidal rate of 90% or more (almost completely withered))
effect on wild oat (I) (wild oat): 3 (Herbicidal rate of 40% or more and less than 70%)
effect on blackgrass (J) (blackgrass): 5 (Herbicidal rate of 90% or more (almost completely withered))
effect on Italian ryegrass (K) (Italian ryegrass): 5 (Herbicidal rate of 90% or more (almost completely withered))
effect on windgrass (L) (windgrass): 5 (Herbicidal rate of 90% or more (almost completely withered))
effect on velvetleaf (M) (velvetleaf): 5 (Herbicidal rate of 90% or more (almost completely withered))
effect on lambsquarters (O) (lambsquarters): 5 (Herbicidal rate of 90% or more (almost completely withered))
effect on persian speedwell (R) (persian speedwell): 5 (Herbicidal rate of 90% or more (almost completely withered))
effect on corn (c) (corn): 0 (Herbicidal rate of 5% or less (almost no effect))
effect on soybean (d) (soybean): 3 (Herbicidal rate of 40% or more and less than 70%)
effect on wheat (e) (wheat [4]): 1 (Herbicidal rate of 5% or more and less than 20%)
effect on beet (f) (beet [5]): 5 (Herbicidal rate of 90% or more (almost completely withered))
effect on rapeseed (g) (rapeseed [6]): 5 (Herbicidal rate of 90% or more (almost completely withered))
